US8410161B2, “Thioxanthone ring system derivatives” (National Defense Medical Center, priority 2010, dated 2013)
Where two headings read alike, the source gives them in different places.

How the values were obtained:
Assay type in all cases: cell-based
DU145 = assay: NCI in vitro DTP human cell line screen, DU145; settings: Prostate Cancer, 1.00E−5 Molar
Description: (§1) Then, a cell toxicity assay of the cancer lines made by National Cancer Institute will be discussed as follows. The cell toxicity assay is performed by choosing ten compounds (existing certification numbers) from the 59 compounds disclosed in the present invention first.

HOP-92 = assay: NCI in vitro DTP human cell line screen, HOP-92; settings: Non-Small Cell Lung Cancer, 1.00E−5 Molar
Description: as §1

HEL299 fibroblast = assay: MTT assay, HEL299 fibroblast
Source text: Please refer to FIG. 4C, various cell viabilities of the HEL299 cell lines can be obtained through the MTT assay while the compounds No. 1˜30 are used to treat HEL299 cell lines, wherein HEL299 cell lines are fibroblast.

HCT-116 = assay: NCI in vitro DTP human cell line screen, HCT-116; settings: Colon Cancer, 1.00E−5 Molar
Description: as §1

SF-539 = assay: NCI in vitro DTP human cell line screen, SF-539; settings: CNS Cancer, 1.00E−5 Molar
Description: as §1

A3 cell lines = assay: MTT assay, A3 cell lines (lung cancer stem cell)
Source text: Please to FIG. 4B, various cell viabilities of the A3 cell lines can be obtained through the MTT assay and illustrated in FIG. 4B while the compounds No. 1˜30 are used to treat A3 cell lines, wherein A3 cell lines are lung cancer stem cell.

A control cell lines = assay: MTT assay, A control cell lines (lung cancer cell); settings: for inhibition effect on A control cell line (in words): summary of MTT cell viabilities
Source text: Please refer to Table 1 and FIGS. 4A-4C. According to a MTT assay (Table 1), various cell viabilities of the A control cell lines can be obtained and illustrated in FIG. 4A while the compounds No. 2˜30 are used to treat A control cell lines, wherein A control cell lines are lung cancer cell.

HCC-2998 = assay: NCI in vitro DTP human cell line screen, HCC-2998; settings: Colon Cancer, 1.00E−5 Molar
Description: as §1

T-47D = assay: NCI in vitro DTP human cell line screen, T-47D; settings: Breast Cancer, 1.00E−5 Molar
Description: as §1

TK-10 = assay: NCI in vitro DTP human cell line screen, TK-10; settings: Renal Cancer, 1.00E−5 Molar
Description: as §1

MOLT-4 = assay: NCI in vitro DTP human cell line screen, MOLT-4; settings: Leukemia, 1.00E−5 Molar
Description: as §1

MDA-MB-468 = assay: NCI in vitro DTP human cell line screen, MDA-MB-468; settings: Breast Cancer, 1.00E−5 Molar
Description: as §1

IGROV1 = assay: NCI in vitro DTP human cell line screen, IGROV1; settings: Ovarian Cancer, 1.00E−5 Molar
Description: as §1

OVCAR-8 = assay: NCI in vitro DTP human cell line screen, OVCAR-8; settings: Ovarian Cancer, 1.00E−5 Molar
Description: as §1

SR = assay: NCI in vitro DTP human cell line screen, SR; settings: Leukemia, 1.00E−5 Molar
Description: as §1

| SMILES | Growth Percent (DU145) | Growth Percent (HOP-92) | cell viabilities of HEL299 cell lines (MTT assay) (HEL299 fibroblast; HEL299, normal fibroblast) | Growth Percent (HCT-116) | Growth Percent (SF-539) | cell viabilities of A3 cell lines (MTT assay) (A3 cell lines; A3, lung cancer stem cell) | inhibition effect on A3 cell line (in words) (A3 cell lines; summary of MTT cell viabilities) | cell viabilities of A control cell lines (MTT assay) (A control cell lines; A control, lung cancer cell) | inhibition effect on A control cell line (in words) (A control cell lines) | Growth Percent (HCC-2998) | Growth Percent (T-47D) | Growth Percent (TK-10) | Growth Percent (MOLT-4) | Growth Percent (MDA-MB-468) | Growth Percent (IGROV1) | Growth Percent (OVCAR-8) | Growth Percent (SR) | cell viabilities of A3 cell lines (MTT assay) (A3 cell lines) | cell viabilities of A control cell lines (MTT assay) (A control cell lines) | cytotoxicity effect on the normal fibroblast (in words) (HEL299 fibroblast) |
| --- | --- | --- | --- | --- | --- | --- | --- | --- | --- | --- | --- | --- | --- | --- | --- | --- | --- | --- | --- | --- |
| O=c1c2ccccc2sc2c(Cl)c(SCc3ccccc3)ccc12 [No. 23, 3-(Benzylthio)-4-chloro-9H-thioxanthen-9-one] | 107.70% | 74.60% | 85.2 ± 5.26% | 41.74% | 102.89% | 65.9% | inhibition effect | 36.6% | inhibition effect | 101.78% | 82.55% | 95.49% | 98.34% | 73.81% | 56.63% | 82.11% | 36.57% |  |  |  |
| CCCSc1ccc2c(=O)c3ccccc3sc2c1Cl [No. 3, 4-Chloro-3-(propylthio)-9H-thioxanthen-9-one] | 91.93% | 98.11% |  | 61.89% | 82.48% |  |  |  |  | 100.70% | 98.14% | 103.80% | 94.70% | 91.53% | 91.28% | 83.50% | 75.26% | 103 ± 10.2% | 84.8 ± 2.95% |  |
| COc1ccc(CSc2ccc3c(=O)c4ccccc4sc3c2Cl)cc1 [No. 27, 4-Chloro-3-(4-methoxybenzylthio)-9H-thioxanthen-9-one] | 114.70% | 78.71% |  | 95.54% | 106.78% |  |  |  | inhibition effect | 105.73% | 88.81% | 105.39% | 102.31% | 102.80% | 108.76% | 95.58% | 84.48% | 101 ± 2.95% | 50.5% | without the cytotoxicity effect |
| O=c1c2ccccc2sc2c(Cl)c(SCc3ccc(Cl)cc3)ccc12 [No. 26, 4-Chloro-3-(4-chlorobenzylthio)-9H-thioxanthen-9-one] | 108.56% | 69.89% |  | 96.31% | 96.81% |  |  |  |  | 107.66% | 87.73% | 100.13% | 96.00% | 96.96% | 104.47% | 86.47% | 93.51% | 62.4% | 96.8 ± 4.29% |  |
